Experimental data as given in PMC6271077, “Synthesis, Anticancer and Antibacterial Activity of Salinomycin N-Benzyl Amides” (Molecules, 2014).
In brackets after ≈: the same amount, converted by molar mass. Where two headings read alike, the source gives them in different places.

Tests used:
[1] = test system: HL-60, HL-60/vinc, LoVo, LoVo/dx; test: Antiproliferative assays, all four cancer cell lines (range given); type: cell-based; conditions: Homo sapiens, read-out: IC50 (range over the cancer cell lines)
Source text: (§1) Four human cancer cell lines and one normal cell line were used to evaluate anticancer activity of SAL and its N-benzyl amides: human acute promyelocytic leukemia (HL-60) and its vincristine resistant subline (HL-60/vinc), human colon adenocarcinoma cell lines sensitive (LoVo) and resistant to doxorubicin (LoVo/dx) as well as also normal murine embryonic fibroblast cell line (BALB/3T3). The BALB/3T3 cell line was purchased from the American Type Culture Collection (ATCC Rockville, MD, USA), HL-60 cell line from European Type Culture Collection by courtesy of Professor Spik and Dr Mazurier (Laboratory of Biological Chemistry USTL, Lille, France) and HL-60/vinc, LoVo and LoVo/dx by courtesy of Prof. E. Borowski (Technical University of Gdańsk, Gdańsk, Poland). All the cell lines are maintained in the Institute of Immunology and Experimental Therapy (IIET), Wrocław, Poland.
(§2) Human leukemia cells were cultured in ISCOVE medium (IIET, Wroclaw, Polond) containing 10% fetal bovine serum and 2 mM L-glutamine (Sigma Aldrich) and 1 µg/100 mL […] for HL-60/vinc (Sigma Aldrich). Human colon adenocarcinoma cell lines were cultured in mixture of OptiMEM and RPMI 1640 (1:1) medium (IIET) supplemented with 5% fetal bovine serum (Thermo Fisher Scientific, Waltham, MA, USA), 2 mM L-glutamine, 1 mM sodium pyruvate (Sigma Aldrich) and 10 µg/100 mL doxorubicin for LoVo/dx (Sigma Aldrich). Murine embryonic fibroblast cells were cultured in Dulbecco medium (Gibco, Darmstadt, Germany) supplemented with 10% fetal bovine serum (Thermo Fisher Scientific) and 2 mM L-glutamine (Sigma Aldrich). All culture media contained antibiotics: 100 U/mL penicillin (Sigma Aldrich) and 100 µg/mL streptomycin (Polfa-Tarchomin, City, Poland). All cell lines were cultured during entire experiment in humid atmosphere at 37 °C and 5% CO2.
(§3) Twenty four hours before adding the tested compounds all cell lines were seeded in 96-well plates (Sarstedt, Nümbrecht, Germany) in appropriate media with 10^4 cells per well. All cell lines were exposed to each tested agent at four different concentrations from the range 100 to 0.1 µg/mL for 72 h. The cells were also exposed to the reference drugs: cisplatin (Accord, London, UK) and doxorubicin hydrochloride (Fluka, St. Louis, MO, USA). Additionally, all cell lines were exposed to DMSO (the solvent used for tested compounds, Sigma Aldrich) at the concentrations corresponding to those in the tested agent dilutions. For adherent cells sulphorodamine B assay was performed and MTT assay for leukemia cells.
(§4) After 72 h of incubation with tested compounds the cells were fixed in situ by gently adding of 50 µL per well of cold 50% trichloroacetic acid TCA (Avantor Performance Materials, City, Poland) and were incubated at 4 °C for 1 h. Then the wells were washed four times with water and air-dried. Next, 50 µL of 0.2% solution of sulphorodamine B (Sigma Aldrich) in 1% acetic acid (Avantor Performance Materials) were added to each well and plates were incubated at room temperature for 0.5 h. After incubation time, unbound dye was removed by washing plates four times with 1% acetic acid, whereas the stain bound to cells was solubilized with 150 µL of 10 mM Tris base (Sigma Aldrich). Absorbance of each solution was read at Synergy H4 photometer (BioTek Instruments, Winooski, VT, USA) at 540 nm wavelength.
Proliferation inhibition of leukemia cells by tested compounds was measured by means of MTT assay. […]

HL-60/vinc = test: Antiproliferative MTT assay, HL-60/vinc; type: cell-based, human; conditions: for IC50: Homo sapiens, HL60/vinc, 72 h, read-out: IC50 HL-60/vinc; for IR HL-60/vinc: IR = IC50 HL-60/vinc / IC50 HL-60; for SI HL-60/vinc: SI = IC50 BALB/3T3 / IC50 HL-60/vinc
Source text: as §1, §2, §3
(§5) Proliferation inhibition of leukemia cells by tested compounds was measured by means of MTT assay. Thus, 20 µL of 3-(4,5-dimethylthiazol-2-yl)-2,5-diphenyl tetrazolium bromide solution (Sigma Aldrich) were added to each well and plates were left in cell incubator for 4 h to allow the cells to metabolize yellow MTT to blue formazan. Then, the lysing mixture consisting of 225 mL dimethylformamide, 67.5 g sodium dodecyl sulfate (both from Sigma Aldrich) and 275 mL of distilled water was added in 80 µL volume per well. Plates were incubated for 24 h for the formazan crystals to be released from cells, dissolved and then absorbance of each well was read at Synergy H4 photometer (BioTek Instruments) at 570 nm wavelength.
(§6) Results are presented as mean IC50 (concentration of the tested compound that inhibits cell proliferation by 50%) ± standard deviation. IC50 values were calculated in Cheburator 1.0.2, Dmitry Nevozhay software for each experiment. Compounds at each concentration were tested in triplicates in single experiment and each experiment was repeated at least three times independently. The IR was defined as the ratio of IC50 for a given compound calculated for resistant cell line to that measured for its parental drug sensitive cell line (Table 4).

LoVo/dx = test: Antiproliferative SRB assay, LoVo/dx; type: cell-based, human; conditions: for IC50: Homo sapiens, LoVo/DX, 72 h, read-out: IC50 LoVo/dx; for IR LoVo/DX: IR = IC50 LoVo/dx / IC50 LoVo; for SI LoVo/DX: SI = IC50 BALB/3T3 / IC50 LoVo/dx
Source text: as §1, §2, §3, §4, §6

[2] = test system: M. tuberculosis isoniazid-sensitive strain (spec. 192); test: Tuberculostatic activity, test-tube dilution; type: cell-based; conditions: Mycobacterium tuberculosis, read-out: MIC M. tuberculosis Isoniazid-Sensitive Strain
HL-60 = test: Antiproliferative MTT assay, HL-60; type: cell-based, human; conditions: for IC50: Homo sapiens, read-out: IC50 HL-60; for SI HL-60: SI = IC50 BALB/3T3 / IC50 HL-60
Source text: as §1, §2, §3, §5, §6

[3] = test system: M. tuberculosis standard H37Rv strain; test: Tuberculostatic activity, test-tube dilution; type: cell-based; conditions: Mycobacterium tuberculosis, read-out: MIC M. tuberculosis Standard H37Rv Strain
LoVo = test: Antiproliferative SRB assay, LoVo; type: cell-based, human; conditions: for IC50: Homo sapiens, LoVo, 72 h, read-out: IC50 LoVo; for SI LoVo: SI = IC50 BALB/3T3 / IC50 LoVo
Source text: as §1, §2, §3, §4, §6

[4] = test system: standard and "wild" strains of M. tuberculosis; test: Tuberculostatic activity, all M. tuberculosis strains (overall); type: cell-based; conditions: Mycobacterium tuberculosis, H37RV, read-out: MIC (over M. tuberculosis strains)
[5] = range over HL-60, HL-60/vinc, LoVo, LoVo/dx
[6] = HL-60, 72 h, MTT, mean ± SD, NA: not active in concentrations used (up to 100 µg/mL)

SMILES | IC50 [1] | IC50 (HL-60/vinc) | IR HL-60/vinc (HL-60/vinc) | SI HL-60/vinc (HL-60/vinc) | IC50 (LoVo/dx) | IR LoVo/DX (LoVo/dx) | SI LoVo/DX (LoVo/dx) | MIC [2] | IC50 (HL-60; HL-60, 72 h) | SI HL-60 (HL-60) | MIC [3] | IC50 (LoVo) | SI LoVo (LoVo) | IC50 [1, 5] | IC50 (HL-60; [6]) | IC50 (LoVo; SRB, mean ± SD) | MIC [4]
CCC(C(=O)NCc1ccccc1[N+](=O)[O-])C1CCC(C)C(C(C)C(O)C(C)C(=O)C(CC)C2OC3(C=CC(O)C4(CCC(C)(C5CCC(O)(CC)C(C)O5)O4)O3)C(C)CC2C)O1 (centres unmarked) [NO2-o] | 2.32 to 6.84 µM | 6.84 ± 2.04 µM | 1.97 | 1.40 | 2.45 ± 0.26 µM | 0.64 | 3.90 | 50 µg/mL (≈ 56.5 µM) | 3.47 ± 0.44 µM | 2.75 | 50 µg/mL (≈ 56.5 µM) | 3.81 ± 0.18 µM | 2.51 | – | – | – | –
CC[C@H](C(=O)NCc1ccccc1Cl)C1CC[C@H](C)C([C@@H](C)[C@H](O)[C@H](C)C(=O)[C@H](CC)C2O[C@]3(C=C[C@@H](O)C4(CC[C@@](C)(C5CC[C@](O)(CC)[C@H](C)O5)O4)O3)[C@H](C)C[C@@H]2C)O1 (some centres unmarked) [Cl-o] | – | 3.99 ± 1.47 µM | 1.25 | 1.50 | 2.91 ± 0.22 µM | 0.76 | 2.06 | 50 µg/mL (≈ 57.2 µM) | – | 1.89 | 100 µg/mL (≈ 114 µM) | – | 1.56 | 2.32 to 6.84 µM | 3.18 ± 0.69 µM | 3.85 ± 0.05 µM | –
CCC(C(=O)NCc1ccccc1F)C1CCC(C)C(C(C)C(O)C(C)C(=O)C(CC)C2OC3(C=CC(O)C4(CCC(C)(C5CCC(O)(CC)C(C)O5)O4)O3)C(C)CC2C)O1 (centres unmarked) [F-o] | 2.32 to 6.84 µM | 4.44 ± 1.73 µM | 1.22 | 1.34 | 2.32 ± 0.69 µM | 0.66 | 2.57 | 50 µg/mL (≈ 58.3 µM) | 3.63 ± 0.14 µM | 1.64 | 100 µg/mL (≈ 117 µM) | 3.49 ± 0.59 µM | 1.71 | – | – | – | –
CC[C@H](C(=O)NCc1ccccc1Br)C1CC[C@H](C)C([C@@H](C)[C@H](O)[C@H](C)C(=O)[C@H](CC)C2O[C@]3(C=C[C@@H](O)C4(CC[C@@](C)(C5CC[C@](O)(CC)[C@H](C)O5)O4)O3)[C@H](C)C[C@@H]2C)O1 (some centres unmarked) [Br-o] | – | 4.8 ± 1.48 µM | 1.53 | 1.36 | 2.87 ± 0.29 µM | 0.79 | 2.27 | > 100 µg/mL | – | 2.08 | > 100 µg/mL | – | 1.79 | 2.32 to 6.84 µM | 3.13 ± 0.71 µM | 3.64 ± 0.07 µM | > 100 µg/mL
